Assay results reported in patent publication US20220079956A1, “MAINTENANCE OF AGING MUSCLE TISSUE” (BIOPHYTIS SA, priority 2011, published 2022).
“And” between values parts separate entries of the source, which are not always exact repeats. Equal entries are not always repeated. Where two headings read alike, the source gives them in different places.

Legend:
[1] = test system: mice subjected to a high-fat diet; assay: Mice subjected to a high-fat diet for 3 weeks: carcass weight, quadriceps composition, energy balance; type: in vivo, male C57BL/6J mice; conditions: high-fat diet 3 weeks
Procedure: (§1) The effect of phytoecdysones is observed on mice subjected to a high-fat diet during 3 weeks.
(§2) The HF high-fat diet involved the intake of large amounts of fat in the form of lard. The mice selected for the study were male C57BL/6J mice, 6 weeks old at the start of the experiment.
Mice not subjected to a high fat diet, forming a normal diet control group, were tested in parallel.
(§3) The mice in the study were grouped according to the dietary regimes and treatments to which they were subjected: normal or control diet (LF), high-fat diet (HF), high-fat diet supplemented with quinoa extract (HFQ) and high-fat diet supplemented with pure 20-hydroxyecdysone (HF20E).
(§4) The mice were subjected to the dietary regimes detailed in Table 1 below for three weeks and the mice fed a high-fat diet were treated in parallel with pure 20E or extract A (2% 20E). The concentration of 20E was adjusted to equal 40 mg per kg of food.
In light of the average food intake of the mice, the dose of 20E administered corresponded in the two treatments to 5 mg of 20E per kg of body weight per day. The food was supplied in excess every day for both dietary regimes and all three treatments. On average, 40 g of food was provided per cage per day or 6.5 g of food per mouse per day.
Table 1 below sets out in greater detail the composition of the diets to which mice were subjected:
Following sacrifice, aliquots of muscle (quadriceps) were collected for analysis. FIG. 2 illustrates a graph plotting muscle triglyceride content against diet and associated treatment.

[2] = test system: CPT-1 intracellular fatty acid transporter gene transcripts; assay: Quantity of CPT-1 gene transcripts (mRNA) in muscle of high-fat diet mice; type: in vivo, male C57BL/6J mice; conditions: high-fat diet 3 weeks, 5 mg of 20E per kg body weight per day
Text: as §1, §2, §3, §4
(§5) In light of the average food intake of the mice, the dose of 20E administered corresponded in the two treatments to 5 mg of 20E per kg of body weight per day. The food was supplied in excess every day for both dietary regimes and all three treatments. […]
(§6) FIG. 4 illustrates a graph plotting quantities of gene transcripts (mRNA), as measured in the muscle, against diet and associated treatment. The quantities have been normalized with respect to the quantities measured in the muscles of mice fed the control diet.

UCP3 gene transcripts = assay: Quantity of UCP3 gene transcripts (mRNA) in muscle of high-fat diet mice; type: in vivo, male C57BL/6J mice; conditions: high-fat diet 3 weeks, 5 mg of 20E per kg body weight per day; vs high-fat diet alone
Text: as §1, §2, §3, §4, §5, §6

UCP2 gene transcripts = assay: Quantity of UCP2 gene transcripts (mRNA) in muscle of high-fat diet mice; type: in vivo, male C57BL/6J mice; conditions: high-fat diet 3 weeks, 5 mg of 20E per kg body weight per day; vs high-fat diet alone
Text: as §1, §2, §3, §4, §5, §6

C2C12 myoblast = C2C12 myoblast differentiation (fusion index, number of nuclei per myotube); type: cell-based, mouse; conditions: for EC50: C2C12 myoblasts, 6-day differentiation in the presence of the drug, read-out: EC50 for number of nuclei per myotube increase
Procedure: FIGS. 10A-B are graphs of BIO101 efficacy 50% value (EC50) determination on myoblasts differentiation. The fusion index and number of nuclei per myotubes were measured after 6-day differentiation in the presence of the drug.
The fusion index and the number of nuclei per myotube are recognized parameters of myoblast differentiation. The fusion index was calculated as the ratio of nuclei in fused MHC-positive cells 2 nuclei per cells) to the total nuclei number. […] EC50 values (efficacious doses 50%) for each parameter were calculated by the integration of effect vs [BIO101] curves.

[3] = Single ascending dose study, clinical Phase 1: plasma levels; type: in vivo; conditions: human; for Cmax: plasma, SAD, read-out: Maximal plasma concentration (Cmax)
Procedure: A single ascending BIO101 dose study during clinical Phase 1 trial is performed. […] This low concentration is clearly below optimal conditions (with only 26 and 32% of efficacy for two selected markers of differentiation, see FIGS. 10A-B) and is not responsible for significant efficacy in terms of anabolism (FIGS. 11A-B).
FIG. 12A-B are graphs of plasma levels of BIO101 in human following 100, 350 and 700 mg administration.

sarcopenic patients = assay: Clinical trial in sarcopenic patients: gait speed in 400 meters walking test; type: in vivo, human; conditions: 6 months; for improvement in gait speed in 400 meters walking test compared to placebo: 700 mg daily
Text: After 6 months of treatment, an improvement of 0.09 m/s in the full analyze set (FAS) population and 0.10 m/s in the per protocol (PP) population (treatment effect significant, p<0.01) were observed. This effect of Sarconeos (BIO101) corresponds to the minimal clinically important difference (MCID) in sarcopenia (0.1 m/s), associated with a reduction in mobility and disability in elderly (Perera et al. 2006).

[4] = test system: myostatin gene expression; assay: Myostatin gene expression in C2C12 myotubes by qRT-PCR; type: cell-based, mouse; conditions: 6 hours, vs untreated control
Procedure: In FIG. 11B, C2C12 mouse myoblasts were differentiated for 6 days into myotubes. They were then treated for 6 hours with concentrations of 20E ranging from 0.001 to 10 μM. Myostatin gene expression was detected by qRT-PCR. Results are shown as means±SEM with ***p<0.001, **p<0.01, *p<0.05 vs untreated control (one-way ANOVA with Dunnett's test compared to untreated control).

C2C12 cells = assay: Protein synthesis in differentiated C2C12 myotubes by [3H]-leucine incorporation; type: cell-based, mouse; conditions: 0.1 μM, vs untreated control
Text: FIGS. 11A-B are graph of effects of 20-hydroxyecdysone (20E) on protein synthesis and myostatin gene expression in C2C12 cells. […] Results are shown as means±SEM, ***p<0.001, **p<0.01, *p<0.05 vs untreated control (Kruskal-Wallis followed by a Dunn's test).

[5] = Multiple ascending dose study, clinical Phase 1: adverse events; type: in vivo; conditions: human, daily administrations of 900 mg, MAD
Procedure: A multiple ascending BIO101 dose study was performed during clinical Phase 1 trial. […] For this reason, in clinical Phase 2, the daily dose of 900 mg was not tested.

## CC(C)(O)CC[C@@H](O)[C@](C)(O)[C@H]1CC[C@@]2(O)C3=CC(=O)[C@@H]4C[C@@H](O)[C@@H](O)C[C@]4(C)[C@H]3CC[C@]12C [20E, 20-hydroxyecdysone]
[1]; 5 mg of 20E per kg body weight per day
  energy expenditure higher than high-fat diet alone: 9%
[1]; 5 mg of 20E per kg body weight per day, compared with animals fed the standard diet
  food intake (energy, kcal): same amount of energy
[1]; 5 mg of 20E per kg body weight per day, trend, compared to HF treatment alone
  higher muscle protein content (quadriceps): 5%
[1]; 5 mg of 20E per kg body weight per day, trend, vs high-fat diet alone
  lower muscle triglyceride content (quadriceps): 26%
[1]; 5 mg of 20E per kg of body weight per day in food, vs high-fat diet alone
  lean body mass (carcass defatted) / carcass weight: increase that has allowed the mice to return virtually to the same level as the normal diet
[2]
  quantity of CPT-1 gene transcripts in muscle: tends to restore transcript levels to those seen for the control diet
UCP3 gene transcripts
  quantity of UCP3 gene transcripts in muscle: increase
UCP2 gene transcripts
  quantity of UCP2 gene transcripts in muscle: tendency to increased quantities

## CC(C)(O)CC[C@@H](O)[C@](C)(O)[C@H]1CC[C@@]2(O)C3=CC(=O)[C@@H]4C[C@@H](O)[C@@H](O)C[C@]4(C)[C@H]3CC[C@]12C [BIO101]
C2C12 myoblast
  EC50: 550 nM
C2C12 myoblast; Mus musculus, C2C12, 144 h
  EC50: 556 nM
C2C12 myoblast; at 0.26 μM, the plasma peak of a 100 mg dose, read from FIG. 10A
  % of efficacy on differentiation marker (first marker, fusion index): 26%
C2C12 myoblast; at 0.26 μM, the plasma peak of a 100 mg dose, read from FIG. 10B
  % of efficacy on differentiation marker (second marker, number of nuclei per myotube): 32%
[3]; 175 mg administration (5 mg/kg for a 35 kg patient), read from FIG. 12B
  plasma exposure (maximal concentration from plot vs administered dose): 0.4 µM
[3]; 100 mg dose
  Cmax: 260 nM and 126 ng/mL
[3]; 350 mg dose
  Cmax: 630 nM and 304 ng/mL
[3]; 700 mg dose
  Cmax: 780 nM and 374 ng/mL
Sarcopenic patients; 350 mg daily, notably in a frail sub population of the FAS
  gait speed in 400 meters walking test compared to placebo: improvement
Sarcopenic patients; full analyze set (FAS) population
  improvement in gait speed in 400 meters walking test compared to placebo: 0.09 m/s
Sarcopenic patients; per protocol (PP) population, p<0.01
  improvement in gait speed in 400 meters walking test compared to placebo: 0.10 m/s
[4]; 0.1 μM
  inhibition of myostatin gene expression: not yet significant
[4]; concentration equal or higher than 0.5 μM
  inhibition of myostatin gene expression: significant
C2C12 cells
  effect on protein synthesis: not yet significant
[5]
  treatment-related TEAEs (treatment-emergent adverse events): high number of subjects with treatment-related TEAEs
